What all share (assay type): cell-based, human
Test [1] deals with CD8 T cells transduced with CAR Construct 1. Description: Tcm phenotype skewing of CAR-T cells (CD62L, CCR7, CD27 surface expression). As to conditions: flow cytometry day 8. The procedure: (§1) Culturing cells in large-scale for phenotypic and exhaustion marker evaluation. Isolated CD8 T cells were activated in bulk on day 0 using anti-CD3/anti-CD28 beads in T cell media supplemented with IL-2. On day 1, cells were transduced with the CAR Construct and cell density was adjusted to 0.5×10^6/ml and 10^6 cells were seeded into 12-well plates in the presence of vehicle, TWS119, or DCC-2036. On day 4, cells were transferred into 6-well plates and 2 ml of T cell media was added to each well. On day 6 another 2 ml of media was added to each well. On day 8, CAR T cells were analyzed on a flow cytometer for surface expression of phenotypic markers (CD62L, CCR7, and CD27) and exhaustion markers (PD-1 and Tim-3).
To determine the effect of compound treatment on skewing towards a central memory phenotype, isolated CD8 T cells were activated in bulk on day 0 using anti-CD3/anti-CD28 beads in T cell media supplemented with IL-2. On day 1, cells were transduced with the CAR Construct 1 shown in FIG. 2 and cell density was adjusted to 0.5×10^6/ml and 10^6 cells were seeded into 12 well plates in the presence of vehicle (DMSO), TWS119 or DCC-2036 at the same concentrations. On day 4, cells were transferred into 6-well plates and 2 ml of media was added to each well. On day 6 another 2 ml of media was added to each well. On day 8, cells were analyzed on a flow cytometer for cell surface expression of CD27.
The expression of CD27 observed with vehicle treatment was defined as an MFI (mean fluorescence intensity) of 1 and the relative MFI of cells treated with compound was calculated.
Background: Flow cytometry measures light scatter and fluorescence of single cells or particles in a stream.

The test system of a further test is CD8+ T cells. Kind of test: RNA-Seq gene expression of memory T cell genes. As to conditions: DCC-2036 1 μM, TWS-119 10 μM, roughly 6 days, 5 donors, relative to vehicle, FIG. 5. The source says: To characterize the impact of DCC-2036 in memory cell skewing, gene expression changes for a panel of key genes, (i.e. CCR7, CD62L, etc.) previously known to be highly expressed in memory T cells were investigated. Cryopreserved CD8+ T cells from 5 different donors were thawed and washed into X-Vivo 15 with 5% human AB serum, IL-2, pen/strep, and additional supplements. Cells were dispensed into flat-bottom 384-well plates at 5×10^5 cells/ml with anti-CD3/anti-CD28 beads. Cells were either treated with DCC-2036 at a final concentration of 1 μM, TWS-119 at 10 μM, or received a vehicle (DMSO) only control treatment. Cells were incubated for roughly 6 days at 37 degrees Celsius with 5% CO2.
Post incubation, cells were lysed and RNA was isolated, fragmented and cDNA was generated in the presence of the appropriate sequencing adapters and sequencing was performed using Illumina next generation sequencing technology (NGS). RNA-Sequencing (RNA-Seq) utilizes the capabilities of NGS to not only acquire nucleotide sequence information, but also provide quantitative gene expression measurements from a given samples transcriptome. Gene transcripts were normalized to counts per million (CPM) reads per samples and relative quantitation of each gene transcript was determined for each in treatment relative to the matching vehicle control treated samples. […]

In another test the test system is CD8 CAR-T cells. Description: Exhaustion marker expression (PD-1, Tim-3) on CD8 CAR-T cells. The procedure: as §1
To determine the effect of compound treatment of CAR-T cells on exhaustion marker expression, cells from three different donors were prepared and treated as described in the protocol above. PD-1 and Tim-3 expression was determined using flow cytometry. […] Tim-3 expression was reduced 2-fold with TWS119, and 3.7-fold with DCC-2036 treatment (FIG. 6A).

Test [2] relates to CD8 T cells transduced with the CAR-2 construct. Description: Larger-scale (24-well GREX) CAR-T culture: viability and expansion. Particulars: expanded with compound or vehicle for 6 days. An excerpt: The cells were transduced with the CAR-2 construct (FIG. 2) one day after activation and then replated into 24-well GREX plates with or without compounds. Half the media was replaced every two days thereafter until harvest one week post activation. Cells were activated and expanded in the presence of compound or vehicle for 6 days.

“Also recorded” adds a separate entry of the source.

As for `CNC(=O)c1cc(Oc2ccc(NC(=O)Nc3cc(C(C)(C)C)nn3-c3ccc4ncccc4c3)c(F)c2)ccn1` [DCC-2036, Rebastinib], in test [1] (relative to vehicle (DMSO), FIG. 4A), the “increase in the frequency of CAR-T cells expressing both CD62L and CCR7” value was 2.3 fold. For the same compound, in test [1] (relative to vehicle (MFI defined as 1), FIG. 4B), the “increase in the expression of the differentiation marker CD27 (relative MFI)” value was found to be 2.2 fold. Also, the “expression of key memory T cell genes (CCR7, CD62L etc.)” value with CD8+ T cells is on record as “increases in expression at levels similar to or greater than TWS-119”; in the test with CD8+ T cells (listed as DCC-2036 (FT-61314)) it was “increased expression”. Besides, the “expression of T cell exhaustion marker Tim-3” value with CD8 CAR-T cells (CD8 T cells at one week post activation, relative to DMSO, FIG. 6A) is on record as “reduced expression”. In addition, the “expression of T cell exhaustion marker PD-1” value with CD8 CAR-T cells (CD8 T cells at one week post activation, relative to DMSO, FIG. 6B) is on record as “reduced expression”. Also, the “reduction of Tim-3 expression” value in the test on CD8 CAR-T cells (relative to vehicle, three donors, FIG. 6A) came out at 3.7 fold. In addition, the “decrease in PD-1 surface expression” value in the test with CD8 CAR-T cells (relative to vehicle, three donors, FIG. 6B) came out at 4.5 fold. In addition, the CAR-T cell viability result in test [2] (FIG. 3A) is on record as “improved; also recorded: maintaining viability”. For the same compound, in test [2] (FIG. 3B), the CAR-T cell expansion result was “improved; also recorded: enhancing expansion”.

Source of the values: patent US11932870B2, “Compositions and methods for immune cell modulation in adoptive immunotherapies” (Fate Therapeutics, Inc., priority 2016, dated 2024).
